Reference: US20230141603A1, “BENZODIAZEPINE DERIVATIVES AS GABA A GAMMA1 PAM” (Hoffmann-La Roche Inc., priority 2021, published 2023)

Target: T1, h-GABAA α1β2γ1 (Homo sapiens, UniProt P14867+Q8N1C3)
T1 construct: expressed in transfected cells; host or cells: HEK293F cells (ThermoFisher R79007), membranes
T1 sequence (P14867 28-456): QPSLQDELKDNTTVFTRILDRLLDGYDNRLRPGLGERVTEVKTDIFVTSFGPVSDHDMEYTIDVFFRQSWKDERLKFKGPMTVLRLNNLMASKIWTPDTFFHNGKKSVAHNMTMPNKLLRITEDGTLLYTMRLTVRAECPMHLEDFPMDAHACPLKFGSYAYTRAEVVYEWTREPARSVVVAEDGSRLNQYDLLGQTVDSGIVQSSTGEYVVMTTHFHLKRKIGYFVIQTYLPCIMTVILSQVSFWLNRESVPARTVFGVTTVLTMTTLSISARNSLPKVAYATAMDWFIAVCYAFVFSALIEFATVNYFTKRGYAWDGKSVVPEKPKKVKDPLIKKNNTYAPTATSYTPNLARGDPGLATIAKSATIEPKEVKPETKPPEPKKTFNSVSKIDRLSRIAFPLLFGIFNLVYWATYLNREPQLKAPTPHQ
T1 sequence (P47870 25-512 partner limits assumed): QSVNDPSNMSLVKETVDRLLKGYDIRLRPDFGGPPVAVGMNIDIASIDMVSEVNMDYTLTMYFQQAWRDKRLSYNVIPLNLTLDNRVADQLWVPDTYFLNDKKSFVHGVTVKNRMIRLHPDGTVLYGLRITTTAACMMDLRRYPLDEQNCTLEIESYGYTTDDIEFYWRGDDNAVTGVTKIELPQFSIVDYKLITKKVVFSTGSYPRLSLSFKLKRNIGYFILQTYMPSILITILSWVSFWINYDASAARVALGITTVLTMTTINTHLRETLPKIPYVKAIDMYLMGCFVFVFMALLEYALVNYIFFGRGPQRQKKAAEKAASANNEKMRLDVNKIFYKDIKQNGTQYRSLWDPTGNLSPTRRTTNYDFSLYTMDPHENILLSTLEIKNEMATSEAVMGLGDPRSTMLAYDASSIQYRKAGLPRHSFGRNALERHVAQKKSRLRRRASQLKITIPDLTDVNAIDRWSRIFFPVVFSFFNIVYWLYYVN
T1 sequence (Q8N1C3 36-465): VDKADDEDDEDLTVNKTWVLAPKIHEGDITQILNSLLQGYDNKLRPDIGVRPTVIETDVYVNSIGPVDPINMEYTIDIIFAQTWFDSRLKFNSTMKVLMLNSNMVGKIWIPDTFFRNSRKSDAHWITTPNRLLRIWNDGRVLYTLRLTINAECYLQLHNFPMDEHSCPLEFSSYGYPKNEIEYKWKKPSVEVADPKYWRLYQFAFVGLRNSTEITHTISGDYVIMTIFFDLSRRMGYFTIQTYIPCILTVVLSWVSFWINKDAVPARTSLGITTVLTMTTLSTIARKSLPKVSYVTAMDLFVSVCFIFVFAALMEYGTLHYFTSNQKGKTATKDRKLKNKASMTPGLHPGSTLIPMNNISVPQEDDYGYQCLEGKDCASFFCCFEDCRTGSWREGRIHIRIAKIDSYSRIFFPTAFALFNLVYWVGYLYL
Assay: Radioligand binding assay, [3H]RO7239181 competition, HEK293F membranes
Experimental: The affinity of compounds at GABAA γ1 subunit-containing receptors was measured by competition for [^3H]RO7239181 (67.3 Ci/mmol; Roche) binding to membranes from HEK293F cells (ThermoFisher R79007) expressing human (transiently transfected) receptors of composition […], α2β2γ1, α1β2γ1.
Harvested pellets from HEK293F cells expressing the different GABAA receptor subtypes were resuspended in Mannitol Buffer pH 7.2-7.4 (Mannitol 0.29M, Triethylamine 10 mM, Acetic acid 10 mM, EDTA 1 mM plus protease inhibitors (20 tablets Complete, Roche Diagnostics Cat. No. 05 056 489 001 per liter)), washed two times and then resuspended at 1:10 to 1:15 dilution in the same buffer. Cell disruption was performed by stirring the suspension in a Parr vessel #4637 at 435 psi for 15 minutes, and then the suspensions were centrifuged at 1000×g for 15 minutes at 4° C. (Beckman Avanti J-HC; rotor JS-4.2). The supernatant (S1) was transferred in a 21 Schott flask and the pellet (P1) was resuspended with Mannitol Buffer up to 175 ml. The resuspended pellet was transferred into a 250 ml Corning centrifugal beaker and centrifuged at 1500×g for 10 minutes at 4° C. (Beckman Avanti J-HC; rotor JS-4.2). The supernatant (S1) was then transferred in the 21 Schott flask and the pellet was discarded. The supernatants (S1) were centrifuged in 500 ml Beckman polypropylene centrifugal beaker at 15′000×g for 30 minutes at 4° C. (Beckman Avanti J-20 XP; rotor JLA-10.500). The pellet (P2) was resuspended with Mannitol Buffer 1:1 and frozen at −80° C. The supernatant (S2) was centrifuged in 100 ml Beckman polypropylene centrifugal tubes at 48000×g for 50 minutes at 4° C. (Beckman Avanti J-20 XP; rotor JA-18). The supernatant (S3) was discarded and the pellet (P3) was resuspended with 1:1 Mannitol Buffer. The P2 and P3 protein concentration was determined with the BIORAD Standard assay method with bovine serum albumin as standard and measured on the NANO-Drop 1000. The membrane suspension was aliquots (500 μl per tube) and stored at −80° C. until required. Membrane homogenates were resuspended and polytronised (Polytron PT1200E Kinematica AG) in Potassium Phosphate 10 mM, KCl 100 mM binding buffer at pH 7.4 to a final assay concentration determined with a previous experiment.
Assays were incubated to equilibrium for 1 hour at 4° C. and then, membranes were filtered onto unifilter (96-well white microplate with bonded GF/C filters preincubated 20-50 minutes in 0.3% Polyethylenimine) with a Filtermate 196 harvester (Packard BioScience) and washed 4 times with cold Potassium Phosphate 10 mM pH 7.4, KCl 100 mM binding buffer. After drying, filter-retained radioactivity was detected by liquid scintillation counting. Ki values were calculated using Excel-Fit (Microsoft) and are the means of two determinations.

Row | Compound | Ki
1 | Fc1cccnc1C1=NCc2nnc(-c3cccnn3)n2-c2ccc(C(F)(F)F)c(Cl)c21 [Example 72, 7-chloro-6-(3-fluoro-2-pyridyl)-1-pyridazin-3-yl-8-(trifluoromethyl)-4H-[1,2,4]triazolo[4,3-a][1,4]benzodiazepine] | 274 nM
2 | COc1ccc2c(c1Cl)C(c1c(F)cccc1F)=NCc1nnc(-c3cccnc3)n1-2 [Example 62, 7-chloro-6-(2,6-difluorophenyl)-8-methoxy-1-(3-pyridyl)-4H-[1,2,4]triazolo[4,3-a][1,4]benzodiazepine] | 161 nM
3 | Cc1nnc2n1-c1ccc(Cl)c(Cl)c1C(c1ccccc1F)=NC2 [Example 4, 7,8-dichloro-6-(2-fluorophenyl)-1-methyl-4H-[1,2,4]triazolo[4,3-a][1,4]benzodiazepine] | 103 nM
4 | Cc1nnc2n1-c1ccc(Br)c(Cl)c1C(c1c(F)cccc1F)=NC2 [Example 1, 8-bromo-7-chloro-6-(2,6-difluorophenyl)-1-methyl-4H-[1,2,4]triazolo[4,3-a][1,4]benzodiazepine] | 11.3 nM
5 | CC(F)(F)c1ccc2c(c1Cl)C(c1c(F)cccc1F)=NCc1nncn1-2 [Example 21, 7-chloro-8-(1,1-difluoroethyl)-6-(2,6-difluorophenyl)-4H-[1,2,4]triazolo[4,3-a][1,4]benzodiazepine] | 90.5 nM
6 | O=c1[nH]nc2n1-c1ccc(Br)c(Cl)c1C(c1c(F)cccc1F)=NC2 [Example 13, 8-bromo-7-chloro-6-(2,6-difluorophenyl)-2,4-dihydro-[1,2,4]triazolo[4,3-a][1,4]benzodiazepin-1-one] | 6.2 nM
7 | Fc1cccnc1C1=NCc2nnc(-c3ccncn3)n2-c2ccc(Cl)c(Cl)c21 [Example 55, 7,8-dichloro-6-(3-fluoro-2-pyridyl)-1-pyrimidin-4-yl-4H-[1,2,4]triazolo[4,3-a][1,4]benzodiazepine] | 133 nM
8 | Cc1ccc2c(c1Cl)C(c1c(F)cccc1F)=NCc1n[nH]c(=O)n1-2 [Example 16, 7-chloro-6-(2,6-difluorophenyl)-8-methyl-2,4-dihydro-[1,2,4]triazolo[4,3-a][1,4]benzodiazepin-1-one] | 22.7 nM
9 | Fc1cccnc1C1=NCc2nnc(-c3ccncn3)n2-c2ccc(C(F)(F)F)c(Cl)c21 [Example 69, 7-chloro-6-(3-fluoro-2-pyridyl)-1-pyrimidin-4-yl-8-(trifluoromethyl)-4H-[1,2,4]triazolo[4,3-a][1,4]benzodiazepine] | 139 nM
10 | Cc1nnc2n1-c1ccc(C3CC3)c(Cl)c1C(c1c(F)cccc1F)=NC2 [Example 6, 7-chloro-8-cyclopropyl-6-(2,6-difluorophenyl)-1-methyl-4H-[1,2,4]triazolo[4,3-a][1,4]benzodiazepine] | 237 nM
11 | Cn1cc(-c2nnc3n2-c2ccc(Cl)c(Cl)c2C(c2c(F)cccc2F)=NC3)cn1 [Example 28, 7,8-dichloro-6-(2,6-difluorophenyl)-1-(1-methylpyrazol-4-yl)-4H-[1,2,4]triazolo[4,3-a][1,4]benzodiazepine] | 12.6 nM
12 | Clc1cccnc1C1=NCc2nnc(-c3cccnn3)n2-c2ccc(Br)c(Cl)c21 [Example 47, 8-bromo-7-chloro-6-(3-chloro-2-pyridyl)-1-pyridazin-3-yl-4H-[1,2,4]triazolo[4,3-a][1,4]benzodiazepine] | 7 nM
13 | Cc1ccc2c(c1Cl)C(c1c(F)cccc1F)=NCc1nnc(C)n1-2 [Example 20, 7-chloro-6-(2,6-difluorophenyl)-1,8-dimethyl-4H-[1,2,4]triazolo[4,3-a][1,4]benzodiazepine] | 37.1 nM
14 | Cc1nnc2n1-c1ccc(Cl)c(Cl)c1C(c1c(F)cccc1F)=NC2 [Example 5, 7,8-dichloro-6-(2,6-difluorophenyl)-1-methyl-4H-[1,2,4]triazolo[4,3-a][1,4]benzodiazepine] | 8.2 nM
15 | Cc1nnc2n1-c1ccc(C(C)(F)F)c(Cl)c1C(c1c(F)cccc1F)=NC2 [Example 22, 7-chloro-8-(1,1-difluoroethyl)-6-(2,6-difluorophenyl)-1-methyl-4H-[1,2,4]triazolo[4,3-a][1,4]benzodiazepine] | 68.7 nM
16 | Fc1cccc(F)c1C1=NCc2nncn2-c2ccc(Cl)c(Cl)c21 [Example 15, 7,8-dichloro-6-(2,6-difluorophenyl)-4H-[1,2,4]triazolo[4,3-a][1,4]benzodiazepine] | 11.5 nM
17 | Cc1nnc2n1-c1ccc(C(F)F)c(Cl)c1C(c1c(F)cccc1F)=NC2 [Example 25, 7-chloro-8-(difluoromethyl)-6-(2,6-difluorophenyl)-1-methyl-4H-[1,2,4]triazolo[4,3-a][1,4]benzodiazepine] | 68.6 nM
18 | Fc1cccc(F)c1C1=NCc2nnc(-c3cccnn3)n2-c2ccc(I)c(Cl)c21 [Example 39, 7-chloro-6-(2,6-difluorophenyl)-8-iodo-1-pyridazin-3-yl-4H-[1,2,4]triazolo[4,3-a][1,4]benzodiazepine] | 4.7 nM
19 | Fc1cccc(F)c1C1=NCc2nncn2-c2ccc(C(F)F)c(Cl)c21 [Example 23, 7-chloro-8-(difluoromethyl)-6-(2,6-difluorophenyl)-4H-[1,2,4]triazolo[4,3-a][1,4]benzodiazepine] | 63.9 nM
20 | Fc1cccc(F)c1C1=NCc2nnc(-c3cccnn3)n2-c2ccc(Br)c(Cl)c21 [Example 104, 8-bromo-7-chloro-6-(2,6-difluorophenyl)-1-pyridazin-3-yl-4H-[1,2,4]triazolo[4,3-a][1,4]benzodiazepine] | 4.2 nM
21 | O=c1[nH]nc2n1-c1ccc(Cl)c(Cl)c1C(c1ncccc1F)=NC2 [Example 59, 7,8-dichloro-6-(3-fluoro-2-pyridyl)-2,4-dihydro-[1,2,4]triazolo[4,3-a][1,4]benzodiazepin-1-one] | 54 nM
22 | Cn1cc(-c2nnc3n2-c2ccc(Cl)c(Cl)c2C(c2ncccc2F)=NC3)cn1 [Example 58, 7,8-dichloro-6-(3-fluoro-2-pyridyl)-1-(1-methylpyrazol-4-yl)-4H-[1,2,4]triazolo[4,3-a][1,4]benzodiazepine] | 131 nM
23 | O=c1[nH]nc2n1-c1ccc(Cl)c(Cl)c1C(c1c(F)cccc1F)=NC2 [Example 9, 7,8-dichloro-6-(2,6-difluorophenyl)-2,4-dihydro-[1,2,4]triazolo[4,3-a][1,4]benzodiazepin-1-one] | 7.3 nM
